Source: patent publication US10487093B2, “Heterocyclic compounds, in particular 2-oxo-4,4,5,5,6,6,7,7-octahydrobenzoxazole derivatives, and their use as antibacterial compounds” (priority 2016, dated 2019)
Converted amounts (≈) assume the structure as drawn. Where two headings read alike, the source gives them in different places.

Assays:
[1] = system: Haemophilus influenzae ATCC 49247; assay: MIC, broth microdilution (CLSI) versus planktonic bacteria; assay type: cell-based
[2] = system: human hepatic cell line (HepG2 ATCC HB-8065); assay: Human cell viability assay (CellTiter-Glo); settings: Homo sapiens, HepG2, 24 h, read-out: IC50 (μg/mL) HepG2
[3] = system: Escherichia coli ATCC 25922; assay: MIC, broth microdilution (CLSI) versus planktonic bacteria; assay type: cell-based
[4] = system: Enterobacter cloacae NCTC 13406; assay: as above; assay type: cell-based
[5] = system: Staphylococcus aureus ATCC 29213; assay: as above; assay type: cell-based
[6] = system: Streptococcus pneumoniae ATCC 49619; assay: as above; assay type: cell-based
[7] = system: Acinetobacter baumannii ATCC 19606; assay: as above; assay type: cell-based; settings: ATCC19606; Acinetobacter baumannii ATCC 19606; 16-20 h; mode of three independent experiments; read-out: MIC, Ab ATCC 19606
[8] = system: Acinetobacter baumannii NCTC 13420; assay: as above; assay type: cell-based
[9] = system: Pseudomonas aeruginosa ATCC 27853; assay: as above; assay type: cell-based
[10] = ATCC49247, Haemophilus influenzae ATCC 49247, 16-20 h, mode of three independent experiments, read-out: MIC, Hi ATCC 49247
[11] = ATCC25922, Escherichia coli ATCC 25922, 16-20 h, mode of three independent experiments, read-out: MIC, Ec ATCC 25922
[12] = NCTC13406, Enterobacter cloacae NCTC 13406, 16-20 h, mode of three independent experiments, read-out: MIC, Ecl NCTC 13406
[13] = ATCC29213, Staphylococcus aureus ATCC 29213, 16-20 h, mode of three independent experiments, read-out: MIC, Sa ATCC 29213
[14] = ATCC49619, Streptococcus pneumoniae ATCC 49619, 16-20 h, mode of three independent experiments, read-out: MIC, Sp ATCC 49619
[15] = NCTC13420, Acinetobacter baumannii NCTC 13420, 16-20 h, mode of three independent experiments, read-out: MIC, Ab NCTC 13420
[16] = ATCC27853, Pseudomonas aeruginosa ATCC 27853, 16-20 h, mode of three independent experiments, read-out: MIC, Pa ATCC 27853
[17] = Haemophilus influenzae, ATCC49247, read-out: MIC, Hi ATCC 49247
[18] = Escherichia coli, ATCC25922, read-out: MIC, Ec ATCC 25922
[19] = Enterobacter cloacae, NCTC13406, read-out: MIC, Ecl NCTC 13406
[20] = Staphylococcus aureus, ATCC29213, read-out: MIC, Sa ATCC 29213
[21] = Streptococcus pneumoniae, ATCC49619, read-out: MIC, Sp ATCC 49619
[22] = Acinetobacter baumannii, NCTC13420, read-out: MIC, Ab NCTC 13420
[23] = Pseudomonas aeruginosa, ATCC27853, read-out: MIC, Pa ATCC 27853

SMILES | MIC [1, 10] | IC50 [2] | MIC [3, 11] | MIC [4, 12] | MIC [5, 13] | MIC [6, 14] | MIC [7] | MIC [8, 15] | MIC [9, 16] | MIC [1, 17] | MIC [3, 18] | MIC [4, 19] | MIC [5, 20] | MIC [6, 21] | MIC [8, 22] | MIC [9, 23]
COC(=O)c1ccc2ccc(=O)n(CCN[C@@H]3CC[C@@H]4[C@@H](C3)OC(=O)N4c3ccc4c(n3)NC(=O)CO4)c2c1 [Compound 36, methyl 1-(2-{[(3aR,6R,7aR)-2-oxo-3-{3-oxo-2H,3H,4H-pyrido[3,2-b][1,4]oxazin-6-yl}-octahydro-1,3-benzoxazol-6-yl]amino}ethyl)-2-oxo-1,2-dihydroquinoline-7-carboxylate] | < 1 µg/mL | 10 to 100 µg/mL (≈ 18.7 to 187 µM) | < 1 µg/mL | < 1 µg/mL | < 1 µg/mL | < 1 µg/mL | < 1 µg/mL | < 1 µg/mL | 1 to 10 µg/mL (≈ 1.87 to 18.7 µM) |  |  |  |  |  |  | 
N#Cc1ccc2ccc(=O)n(CCN[C@@H]3CC[C@@H]4[C@@H](C3)OC(=O)N4c3ncc4c(n3)NC(=O)CO4)c2c1 [Compound 37, 1-(2-{[(3aR,6R,7aR)-2-oxo-3-{7-oxo-6H,7H,8H-pyrimido[5,4-b][1,4]oxazin-2-yl}-octahydro-1,3-benzoxazol-6-yl]amino}ethyl)-2-oxo-1,2-dihydroquinoline-7-carbonitrile] | < 1 µg/mL | > 100 µg/mL | < 1 µg/mL | < 1 µg/mL | < 1 µg/mL | < 1 µg/mL | 1 to 10 µg/mL (≈ 1.99 to 19.9 µM) | 1 to 10 µg/mL (≈ 1.99 to 19.9 µM) | 1 to 10 µg/mL (≈ 1.99 to 19.9 µM) |  |  |  |  |  |  | 
COc1ccc2ccc(=O)n(CCN[C@H]3CC[C@H]4[C@H](C3)OC(=O)N4c3ccc4c(n3)NC(=O)C(C)(C)O4)c2n1 [Compound 48, 1-(2-{[(3aS,6S,7aS)-3-{2,2-dimethyl-3-oxo-2H,3H,4H-pyrido[3,2-b][1,4]oxazin-6-yl}-2-oxo-octahydro-1,3-benzoxazol-6-yl]amino}ethyl)-7-methoxy-1,2-dihydro-1,8-naphthyridin-2-one] | 1 to 10 µg/mL (≈ 1.87 to 18.7 µM) | > 100 µg/mL | 1 to 10 µg/mL (≈ 1.87 to 18.7 µM) | 10 to 100 µg/mL (≈ 18.7 to 187 µM) | < 1 µg/mL | < 1 µg/mL |  | < 1 µg/mL | 10 to 100 µg/mL (≈ 18.7 to 187 µM) |  |  |  |  |  |  | 
COc1ccc2ccc(=O)n(CCN[C@@H]3CC[C@@H]4[C@@H](C3)OC(=O)N4c3cc4c(nn3)OCCO4)c2n1 [Compound 49, 1-(2-{[(3aR,6R,7aR)-3-{6H,7H-[1,4]dioxino[2,3-c]pyridazin-3-yl}-2-oxo-octahydro-1,3-benzoxazol-6-yl]amino}ethyl)-7-methoxy-1,2-dihydro-1,8-naphthyridin-2-one] | 10 to 100 µg/mL (≈ 20.2 to 202 µM) | > 100 µg/mL | 10 to 100 µg/mL (≈ 20.2 to 202 µM) | > 100 µg/mL | < 1 µg/mL | < 1 µg/mL |  | 10 to 100 µg/mL (≈ 20.2 to 202 µM) | 10 to 100 µg/mL (≈ 20.2 to 202 µM) |  |  |  |  |  |  | 
N#Cc1cnc2ccc(=O)n(CCN[C@@H]3CC[C@@H]4[C@@H](C3)OC(=O)N4c3ccc4c(n3)NC(=O)CO4)c2c1 [Compound 50, 5-(2-{[(3aR,6R,7aR)-2-oxo-3-{3-oxo-2H,3H,4H-pyrido[3,2-b][1,4]oxazin-6-yl}-octahydro-1,3-benzoxazol-6-yl]amino}ethyl)-6-oxo-5,6-dihydro-1,5-naphthyridine-3-carbonitrile] | < 1 µg/mL | > 100 µg/mL | < 1 µg/mL | 1 to 10 µg/mL (≈ 1.99 to 19.9 µM) | < 1 µg/mL | < 1 µg/mL |  | 1 to 10 µg/mL (≈ 1.99 to 19.9 µM) | < 1 µg/mL |  |  |  |  |  |  | 
COc1cnc2ccc(=O)n(CCN(C)[C@H]3CC[C@H]4[C@@H](C3)OC(=O)N4c3ccc4c(n3)NC(=O)CO4)c2c1 [Compound 51, 1-(2-{[(3aS,6S,7aR)-2-oxo-3-{3-oxo-2H,3H,4H-pyrido[3,2-b][1,4]oxazin-6-yl}-octahydro-1,3-benzoxazol-6-yl](methyl)amino}ethyl)-7-methoxy-1,2-dihydro-1,5-naphthyridin-2-one] | < 1 µg/mL | > 100 µg/mL | 1 to 10 µg/mL (≈ 1.92 to 19.2 µM) | 1 to 10 µg/mL (≈ 1.92 to 19.2 µM) | < 1 µg/mL | < 1 µg/mL |  | 1 to 10 µg/mL (≈ 1.92 to 19.2 µM) | 1 to 10 µg/mL (≈ 1.92 to 19.2 µM) |  |  |  |  |  |  | 
CSc1ncc2ccc(=O)n(CCN[C@H]3CC[C@H]4[C@@H](C3)OC(=O)N4c3ccc4c(n3)NC(=O)CO4)c2n1 [Compound 53, (3aS,6S,7aR)-6-({2-[2-(methylsulfanyl)-7-oxo-7H,8H-pyrido[2,3-d]pyrimidin-8-yl]ethyl}amino)-3-{3-oxo-2H,3H,4H-pyrido[3,2-b][1,4]oxazin-6-yl}-octahydro-1,3-benzoxazol-2-one] | 1 to 10 µg/mL (≈ 1.91 to 19.1 µM) | > 100 µg/mL | 1 to 10 µg/mL (≈ 1.91 to 19.1 µM) | 10 to 100 µg/mL (≈ 19.1 to 191 µM) | < 1 µg/mL | 1 to 10 µg/mL (≈ 1.91 to 19.1 µM) |  | 1 to 10 µg/mL (≈ 1.91 to 19.1 µM) | 10 to 100 µg/mL (≈ 19.1 to 191 µM) |  |  |  |  |  |  | 
CN(CCn1c(=O)ccc2ccc(OCCN)cc21)[C@@H]1CC[C@@H]2[C@@H](C1)OC(=O)N2c1ccc2c(n1)NC(=O)CO2 [Compound 54] | 1 to 10 µg/mL (≈ 1.82 to 18.2 µM) | > 100 µg/mL | < 1 µg/mL | 1 to 10 µg/mL (≈ 1.82 to 18.2 µM) | < 1 µg/mL | < 1 µg/mL |  | 1 to 10 µg/mL (≈ 1.82 to 18.2 µM) | 1 to 10 µg/mL (≈ 1.82 to 18.2 µM) |  |  |  |  |  |  | 
O=C1COc2cnc(N3C(=O)O[C@@H]4C[C@@H](NCCn5c(=O)cnc6cc(F)c(F)cc65)CC[C@@H]43)nc2N1 [Compound 65, 1-(2-{[(3aS,6S,7aR)-2-oxo-3-{7-oxo-6H,7H,8H-pyrimido[5,4-b][1,4]oxazin-2-yl}-octahydro-1,3-benzoxazol-6-yl]amino}ethyl)-6,7-difluoro-1,2-dihydroquinoxalin-2-one] | 1 to 10 µg/mL (≈ 1.95 to 19.5 µM) | > 100 µg/mL | 1 to 10 µg/mL (≈ 1.95 to 19.5 µM) | 1 to 10 µg/mL (≈ 1.95 to 19.5 µM) | < 1 µg/mL | < 1 µg/mL |  | 10 to 100 µg/mL (≈ 19.5 to 195 µM) | 10 to 100 µg/mL (≈ 19.5 to 195 µM) |  |  |  |  |  |  | 
O=C1COc2cnc(N3C(=O)O[C@H]4C[C@@H](NCCn5c(=O)cnc6cc(F)c(F)cc65)CC[C@@H]43)nc2N1 [Compound 66, 1-(2-{[(3aS,6S,7aS)-2-oxo-3-{7-oxo-6H,7H,8H-pyrimido[5,4-b][1,4]oxazin-2-yl}-octahydro-1,3-benzoxazol-6-yl]amino}ethyl)-6,7-difluoro-1,2-dihydroquinoxalin-2-one] | 1 to 10 µg/mL (≈ 1.95 to 19.5 µM) | > 100 µg/mL | 1 to 10 µg/mL (≈ 1.95 to 19.5 µM) | 10 to 100 µg/mL (≈ 19.5 to 195 µM) | < 1 µg/mL | < 1 µg/mL |  | 1 to 10 µg/mL (≈ 1.95 to 19.5 µM) | > 100 µg/mL |  |  |  |  |  |  | 
N#Cc1ccc(-c2cccc(CN[C@H]3CC[C@H]4[C@H](C3)OC(=O)N4c3ccc4c(n3)NC(=O)CO4)c2)nc1 [Compound 71, 6-[3-({[(3aS,6S,7aS)-2-oxo-3-{3-oxo-2H,3H,4H-pyrido[3,2-b][1,4]oxazin-6-yl}-octahydro-1,3-benzoxazol-6-yl]amino}methyl)phenyl]pyridine-3-carbonitrile] | 1 to 10 µg/mL (≈ 2.01 to 20.1 µM) | 10 to 100 µg/mL (≈ 20.1 to 201 µM) | < 1 µg/mL | 1 to 10 µg/mL (≈ 2.01 to 20.1 µM) | < 1 µg/mL | 1 to 10 µg/mL (≈ 2.01 to 20.1 µM) |  | 1 to 10 µg/mL (≈ 2.01 to 20.1 µM) | 10 to 100 µg/mL (≈ 20.1 to 201 µM) |  |  |  |  |  |  | 
NCCOc1ccc2ccc(=O)n(CCN[C@H]3CC[C@H]4[C@H](C3)OC(=O)N4c3ccc4c(n3)NC(=O)CO4)c2c1 [Compound 75, (3aS,6S,7aS)—N-{2-[7-(2-azaniumylethoxy)-2-oxo-1,2-dihydroquinolin-1-yl]ethyl}-2-oxo-3-{3-oxo-2H,3H,4H-pyrido[3,2-b][1,4]oxazin-6-yl}-octahydro-1,3-benzoxazol-6-aminium dichloride] |  | > 100 µg/mL |  |  |  |  |  |  |  | 10 to 100 µg/mL | < 1 µg/mL | 1 to 10 µg/mL | 1 to 10 µg/mL | < 1 µg/mL | > 100 µg/mL | 1 to 10 µg/mL
COc1ccc2ccc(=O)n(CCN(C(=O)CN)[C@H]3CC[C@H]4[C@H](C3)OC(=O)N4c3ccc4c(n3)NC(=O)CO4)c2n1 [Compound 78, {[(3aS,6S,7aS)-2-oxo-3-{3-oxo-2H,3H,4H-pyrido[3,2-b][1,4]oxazin-6-yl}-octahydro-1,3-benzoxazol-6-yl][2-(7-methoxy-2-oxo-1,2-dihydro-1,8-naphthyridin-1-yl)ethyl]carbamoyl}methanaminium chloride] |  | > 100 µg/mL |  |  |  |  |  |  |  | 10 to 100 µg/mL | 1 to 10 µg/mL | > 100 µg/mL | < 1 µg/mL | < 1 µg/mL | 10 to 100 µg/mL | 1 to 10 µg/mL
Cn1ccc(-c2ccc3ccc(=O)n(CCN[C@H]4CC[C@H]5[C@H](C4)OC(=O)N5c4ccc5c(n4)NC(=O)CO5)c3c2)n1 [Compound 104, 1-(2-{[(3aS,6S,7aS)-2-oxo-3-{3-oxo-2H,3H,4H-pyrido[3,2-b][1,4]oxazin-6-yl}-octahydro-1,3-benzoxazol-6-yl]amino}ethyl)-7-(1-methyl-1H-pyrazol-3-yl)-1,2-dihydroquinolin-2-one] | < 1 µg/mL | 10 to 100 µg/mL (≈ 18 to 180 µM) | 1 to 10 µg/mL (≈ 1.8 to 18 µM) | 1 to 10 µg/mL (≈ 1.8 to 18 µM) | < 1 µg/mL | < 1 µg/mL |  | < 1 µg/mL | 10 to 100 µg/mL (≈ 18 to 180 µM) |  |  |  |  |  |  | 
